Results published in patent US10765114B2, “4-amino-6-(pyridyl and 2-substitutedphenyl)-picolinates and 6-amino-2-(pyridyl and 2-substitutedphenyl)-pyrimidine-4-carboxylates and their use as herbicides” (Dow AgroSciences LLC, priority 2013, dated 2020).

System: Key Grass and Sedge Weeds as well as Grass Crops
Experiment: Post-Emergent Test II (Table 6)
Type: in vivo
Details: CYPSS (CYPES: yellow nutsedge, Cyperus esculentus), 70 g ai/ha
Method: Seeds or nutlets of the desired test plant species were planted in Sun Gro Metro-Mix® 360 planting mixture, which typically has a pH of 6.0 to 6.8 and an organic matter content of about 30 percent, in plastic pots with a surface area of 64 square centimeters. When required to ensure good germination and healthy plants, a fungicide treatment and/or other chemical or physical treatment was applied. The plants were grown for 7-21 days in a greenhouse with an approximate 15 h photoperiod which was maintained at about 23-29° C. during the day and 22-28° C. during the night. Nutrients and water were added on a regular basis and supplemental lighting was provided with overhead metal halide 1000-Watt lamps as necessary. The plants were employed for testing when they reached the first or second true leaf stage.
A weighed amount, determined by the highest rate to be tested, of each test compound was placed in a 25 mL glass vial and was dissolved in 4 mL of a 97:3 v/v mixture of acetone and DMSO to obtain concentrated stock solutions. […] The concentrated stock solutions obtained were diluted with 20 mL of an aqueous mixture containing acetone, water, isopropyl alcohol, DMSO, Atplus 411F crop oil concentrate, and Triton® X-155 surfactant in a 48.5:39:10:1.5:1.0:0.02 v/v ratio to obtain spray solutions containing the highest application rates. Additional application rates were obtained by serial dilution of 12 mL of the high rate solution into a solution containing 2 mL of 97:3 v/v mixture of acetone and DMSO and 10 mL of an aqueous mixture containing acetone, water, isopropyl alcohol, DMSO, Atplus 411F crop oil concentrate, and Triton X-155 surfactant in a 48.5:39:10:1.5:1.0:0.02 v/v ratio to obtain ½×, ¼×, ⅛× and 1/16× rates of the high rate. Compound requirements are based upon a 12 mL application volume at a rate of 187 liters per hectare (L/ha). Formulated compounds were applied to the plant material with an overhead Mandel track sprayer equipped with 8002E nozzles calibrated to deliver 187 L/ha over an application area of 0.503 square meters at a spray height of 18 inches (43 cm) above the average plant canopy height. Control plants were sprayed in the same manner with the solvent blank.
The treated plants and control plants were placed in a greenhouse as described above and watered by subirrigation to prevent wash-off of the test compounds. After 14 days, the condition of the test plants as compared with that of the untreated plants was determined visually and scored on a scale of 0 to 100 percent where 0 corresponds to no injury and 100 corresponds to complete kill and presented as indicated in Table A. Some of the compounds tested, application rates employed, plant species tested, and results are given in Table 5.

For `Nc1cc(-c2ccc(Cl)c(F)c2C(F)F)nc(C(=O)O)c1Cl` [Compound 13, 4-Amino-3-chloro-6-(4-chloro-2-(difluoromethyl)-3-fluorophenyl)picolinic acid], which “Visual Growth Reduction (%) 14 Days After Application, CYPSS” value is on record?
The value was “G (0-29)”.

Same assay, conditions: CYPSS (CYPES: yellow nutsedge, Cyperus esculentus), 140 g ai/ha

Which “Visual Growth Reduction (%) 14 Days After Application, CYPSS” value does the source give for `Nc1cc(-c2ccc(Cl)c(F)c2C(F)F)nc(C(=O)O)c1Cl` [Compound 13, 4-Amino-3-chloro-6-(4-chloro-2-(difluoromethyl)-3-fluorophenyl)picolinic acid] here?
The value was “G (0-29)”.

Same assay, conditions: DIGSA: crabgrass (Digitaria sanguinalis), 70 g ai/ha

For `Nc1cc(-c2ccc(Cl)c(F)c2C(F)F)nc(C(=O)O)c1Cl` [Compound 13, 4-Amino-3-chloro-6-(4-chloro-2-(difluoromethyl)-3-fluorophenyl)picolinic acid], which “Visual Growth Reduction (%) 14 Days After Application, DIGSA” value is on record?
The value was “G (0-29)”.

Same assay, conditions: DIGSA: crabgrass (Digitaria sanguinalis), 140 g ai/ha

Which “Visual Growth Reduction (%) 14 Days After Application, DIGSA” value does the source give for `Nc1cc(-c2ccc(Cl)c(F)c2C(F)F)nc(C(=O)O)c1Cl` [Compound 13, 4-Amino-3-chloro-6-(4-chloro-2-(difluoromethyl)-3-fluorophenyl)picolinic acid] here?
The value was “G (0-29)”.

Same assay, conditions: ECHSS (ECHCG: barnyardgrass, Echinochloa crus-galli), 70 g ai/ha

With `Nc1cc(-c2ccc(Cl)c(F)c2C(F)F)nc(C(=O)O)c1Cl` [Compound 13, 4-Amino-3-chloro-6-(4-chloro-2-(difluoromethyl)-3-fluorophenyl)picolinic acid] as the compound, how does the “Visual Growth Reduction (%) 14 Days After Application, ECHSS” value read?
The value was “G (0-29)”.

Same assay, conditions: ECHSS (ECHCG: barnyardgrass, Echinochloa crus-galli), 140 g ai/ha

With `Nc1cc(-c2ccc(Cl)c(F)c2C(F)F)nc(C(=O)O)c1Cl` [Compound 13, 4-Amino-3-chloro-6-(4-chloro-2-(difluoromethyl)-3-fluorophenyl)picolinic acid] as the compound, how does the “Visual Growth Reduction (%) 14 Days After Application, ECHSS” value read?
Its value is “G (0-29)”.

Same assay, conditions: ORYSS (ORYSA: rice, Oryza sativa), crop, 70 g ai/ha

`Nc1cc(-c2ccc(Cl)c(F)c2C(F)F)nc(C(=O)O)c1Cl` [Compound 13, 4-Amino-3-chloro-6-(4-chloro-2-(difluoromethyl)-3-fluorophenyl)picolinic acid] was tested. Which “Visual Growth Reduction (%) 14 Days After Application, ORYSS” value did it give?
The value was “G (0-29)”.

Same assay, conditions: ORYSS (ORYSA: rice, Oryza sativa), crop, 140 g ai/ha

Which “Visual Growth Reduction (%) 14 Days After Application, ORYSS” value does the source give for `Nc1cc(-c2ccc(Cl)c(F)c2C(F)F)nc(C(=O)O)c1Cl` [Compound 13, 4-Amino-3-chloro-6-(4-chloro-2-(difluoromethyl)-3-fluorophenyl)picolinic acid] here?
The value was “G (0-29)”.

Same assay, conditions: SETFA: giant foxtail (Setaria faberi), 70 g ai/ha

For `Nc1cc(-c2ccc(Cl)c(F)c2C(F)F)nc(C(=O)O)c1Cl` [Compound 13, 4-Amino-3-chloro-6-(4-chloro-2-(difluoromethyl)-3-fluorophenyl)picolinic acid], which “Visual Growth Reduction (%) 14 Days After Application, SETFA” value is on record?
Its value is “G (0-29)”.

Same assay, conditions: SETFA: giant foxtail (Setaria faberi), 140 g ai/ha

`Nc1cc(-c2ccc(Cl)c(F)c2C(F)F)nc(C(=O)O)c1Cl` [Compound 13, 4-Amino-3-chloro-6-(4-chloro-2-(difluoromethyl)-3-fluorophenyl)picolinic acid] was tested. Which “Visual Growth Reduction (%) 14 Days After Application, SETFA” value did it give?
The value was “G (0-29)”.

Same assay, conditions: SORVU: johnsongrass (Sorghum vulgare), 70 g ai/ha

For `Nc1cc(-c2ccc(Cl)c(F)c2C(F)F)nc(C(=O)O)c1Cl` [Compound 13, 4-Amino-3-chloro-6-(4-chloro-2-(difluoromethyl)-3-fluorophenyl)picolinic acid], which “Visual Growth Reduction (%) 14 Days After Application, SORVU” value is on record?
Its value is “G (0-29)”.

Same assay, conditions: SORVU: johnsongrass (Sorghum vulgare), 140 g ai/ha

How did the “Visual Growth Reduction (%) 14 Days After Application, SORVU” value turn out when `Nc1cc(-c2ccc(Cl)c(F)c2C(F)F)nc(C(=O)O)c1Cl` [Compound 13, 4-Amino-3-chloro-6-(4-chloro-2-(difluoromethyl)-3-fluorophenyl)picolinic acid] was run?
Its value is “G (0-29)”.

Same assay, conditions: TRZSS (TRZAS: wheat, spring, Triticum aestivum), crop, 70 g ai/ha

How did the “Visual Growth Reduction (%) 14 Days After Application, TRZSS” value turn out when `Nc1cc(-c2ccc(Cl)c(F)c2C(F)F)nc(C(=O)O)c1Cl` [Compound 13, 4-Amino-3-chloro-6-(4-chloro-2-(difluoromethyl)-3-fluorophenyl)picolinic acid] was run?
Its value is “G (0-29)”.

Same assay, conditions: TRZSS (TRZAS: wheat, spring, Triticum aestivum), crop, 140 g ai/ha

How did the “Visual Growth Reduction (%) 14 Days After Application, TRZSS” value turn out when `Nc1cc(-c2ccc(Cl)c(F)c2C(F)F)nc(C(=O)O)c1Cl` [Compound 13, 4-Amino-3-chloro-6-(4-chloro-2-(difluoromethyl)-3-fluorophenyl)picolinic acid] was run?
The value was “G (0-29)”.

Same assay, conditions: ZEAMX: maize, corn (Zea mays), crop, 70 g ai/ha

How did the “Visual Growth Reduction (%) 14 Days After Application, ZEAMX” value turn out when `Nc1cc(-c2ccc(Cl)c(F)c2C(F)F)nc(C(=O)O)c1Cl` [Compound 13, 4-Amino-3-chloro-6-(4-chloro-2-(difluoromethyl)-3-fluorophenyl)picolinic acid] was run?
Its value is “G (0-29)”.
